Measurements published in patent US20110053897A1 (IRM LLC, priority 2009, published 2011).
Read-outs that look alike come from different tables or passages of the source.

Molecular target: T1, Syk kinase (Homo sapiens, UniProt P43405)
T1 construct: purchased
Assay: Syk kinase inhibition, Caliper LabChip off-chip mobility-shift kinase assay
Type: biochemical
Conditions: read-out: Syk Enzyme IC50
How it was run: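 Purified Syk pre-incubated 15 min with compound in 100 mM HEPES pH 7.5, 1 mM DTT, 10 mM MgCl2 or MnCl2, 0.002% Brij-35, then 1.5 μM fluorescein peptide and ATP at apparent KM added; 1–1.5 h at room temperature, 4% DMSO, EDTA stop. Microfluidic mobility-shift product/substrate conversion gave % inhibition; IC50 from 12-point series (10–0.00003 μM) by 4-parameter fit.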

SMILES | IC50 [nM] | IC50 (Caliper LabChip assay) [nM]
CCOCCOc1cccc(Nc2nc(Nc3cc(C)ccn3)cc3ccn(C)c(=O)c23)c1 [compound 335] | 1610 | –
NC(=O)Cn1ccc2cc(Nc3cnccn3)nc(NC3CCCC3)c2c1=O [compound 752] | – | 18
CC(C)(C)Nc1nc(Nc2cnccn2)cc2cc[nH]c(=O)c12 [compound 679] | – | 12
Cc1ccnc(Nc2cc3cc[nH]c(=O)c3c(NCCc3cccnc3)n2)c1 [compound 284] | 166 | –
CC(C)(C)Nc1nc(Nc2cc(C(F)(F)CO)ccn2)cc2ccn(CCO)c(=O)c12 [compound 871] | – | < 1.27
Cc1cc(Nc2cc3ccn(CCO)c(=O)c3c(NC(C)(C)C)n2)ncn1 [compound 886] | – | 60
COc1ccnc(Nc2cc3cc[nH]c(=O)c3c(Nc3ccc(C4CCN(C5CC5)CC4)c(C)c3)n2)c1 [compound 259] | 255 | –
COCCCN1CCC(c2ccc(Nc3nc(-c4cncnc4)cc4cc[nH]c(=O)c34)cc2F)CC1 [compound 197] | 35 | –
Cc1ccnc(Nc2cc3ccn(C)c(=O)c3c(NC(C)C)n2)c1 [compound 508] | 153 | –
C/C(=N\OCCN(C)C)c1ccnc(Nc2cc3ccn(CCO)c(=O)c3c(NC(C)(C)C)n2)c1 [compound 686] | – | 246
COc1cncc(-c2cc3cc[nH]c(=O)c3c(Nc3ccc(C4CCN(CCC(N)=O)CC4)c(C)c3)n2)n1 [compound 158] | 24 | –
CCn1ccc2cc(Nc3cc(C)ccn3)nc(NC3CC=C(C)CC3)c2c1=O (stereo not drawn) [compound 954] | – | 754
CC(C)(C)Nc1nc(Nc2cc(C3CCCCC3)ncn2)cc2ccn(CCO)c(=O)c12 [compound 625] | – | 452
Cc1ccnc(Nc2cc3ccn(CCO)c(=O)c3c(N)n2)c1 [compound 813] | – | 1050
CCn1ccc2cc(Nc3cnccn3)nc(N[C@H](CO)C(C)C)c2c1=O [compound 1043] | – | 122
[2H]C([2H])([2H])n1ccc2cc(Nc3cc(C)ccn3)nc(N[C@H]3CC[C@@H](O)CC3)c2c1=O [compound 378] | 20 | –
CC(C)(C)Nc1nc(-c2cnc(N)nc2)cc2ccn(CCS(C)(=O)=O)c(=O)c12 [compound 737] | – | 20
Cc1ccnc(Nc2cc3ccn(C)c(=O)c3c(NC[C@H]3CCCO3)n2)c1 [compound 512] | 158 | –

SMILES | IC50 [nM] | IC50 (Caliper LabChip assay) [nM]
Cc1ncc(-c2cc3cc[nH]c(=O)c3c(Nc3ccc(N4C[C@@H](C)O[C@@H](C)C4)nc3)n2)cn1 [compound 17] | 163 | –
Nc1ncc(-c2cc3ccn(C[C@H](O)CO)c(=O)c3c(NC3CCC3)n2)cn1 [compound 774] | – | 34
CC(C)Nc1nc(Nc2ccc(C#N)cn2)cc2cc[nH]c(=O)c12 [compound 570] | 377 | –
CCn1ccc2cc(Nc3cc(C)ccn3)nc(NCCC(F)(F)F)c2c1=O [compound 780] | – | 862
Cn1ccc2cc(Nc3cnccn3)nc(N[C@H]3CC[C@H](O)CC3)c2c1=O [compound 358] | 49 | –
O=c1[nH]ccc2cc(Nc3ccccn3)nc(N[C@H]3CCC[C@H]3O)c12 (racemic) [compound 280] | 62 | –
CC(C)Nc1nc(Nc2cnccn2)cc2ccn(CCN3CCOCC3)c(=O)c12 [compound 320] | 200 | –
Cc1cc(Nc2nc(C(C)O)cc3cc[nH]c(=O)c23)ccc1C1CCNCC1 (stereo not drawn) [compound 236] | 12 | –
CC(C)(C)Nc1nc(Nc2cnccn2)cc2ccn(CCC#N)c(=O)c12 [compound 1004] | – | 19
CC(C)(C)Nc1nc(Nc2cc(C3(C(=O)O)CC3)ccn2)cc2ccn(CCO)c(=O)c12 [compound 856] | – | 393
COc1ncc(-c2cc(Nc3cc4ccn(CCO)c(=O)c4c(NC(C)(C)C)n3)ncn2)cn1 [compound 637] | – | 60
O=c1[nH]ccc2cc(-c3cncnc3)nc(Nc3ccc([C@H]4CC[C@H](N5CCOCC5)CC4)cc3)c12 [compound 111] | 190 | –
COCCn1ccc2cc(Nc3cnccn3)nc(NC(C)(C)C)c2c1=O [compound 1006] | – | 96
COCCCc1cc2cc[nH]c(=O)c2c(Nc2ccc(N3CCOCC3)cc2)n1 [compound 240] | 356 | –
CCn1ccc2cc(-c3cnc(N)nc3)nc(N)c2c1=O [compound 743, 8-amino-6-(2-aminopyrimidin-5-yl)-2-ethyl-2,7-naphthyridin-1(2H)-one] | – | 287
COc1cncc(-c2cc3cc[nH]c(=O)c3c(Nc3ccc(C4CN(CCS(C)(=O)=O)C4)cc3)n2)n1 [compound 148] | 22 | –
O=c1c2c(N[C@H]3CC[C@@H](O)CC3)nc(Nc3cc(Cl)ccn3)cc2ccn1CCO [compound 384] | 17 | –
CCCCNc1nc(Nc2cc(C)ccn2)cc2cc[nH]c(=O)c12 [compound 532] | 250 | –
